Test results published in patent US8344100B2, “Poly-epitope peptide derived from thymidylate synthase having immunological and anti-tumour activity” (Universitá degli Studi di Siena, priority 2005, dated 2013).
Where a SMILES comes first, the peptide text is derived from it.

How the values were obtained:
[1] = test system: HT-29 cells transfected with the HLA-A(*)02.01 gene; test: 51Cr release cytotoxicity test of CTL lines against colon carcinoma cells HT-29; assay type: cell-based; conditions: HT-29 pretreated with 5-FU
Description: (§1) The lymphocyte lines generated in vitro using TS/PP were capable of destroying the target cells derived from colon carcinoma (the HT-29 and SW-1463 cell lines).
HLA-A (*)02.01 expression was induced by gene transfection on the membrane of HT29 target cells before every experiment. Specific lysis was calculated as follows: […]

[2] = test system: SW-1463 cells; test: 51Cr release cytotoxicity test of CTL lines against colon carcinoma cells SW-1463; assay type: cell-based; conditions: SW-1463 pretreated with 5-FU
Text: as §1

[3] = Anatomo-pathological study of organs (autoimmunity, toxicity); assay type: in vivo, transgenic (HHD) mice; conditions: lung, liver, spleen, kidney, brain, skin and mucosa
[4] = test system: MDA-MB-231 cells; conditions: MDA-MB-231 pretreated with 5-FU
Description: Cytotoxic assays. The release of radioactive chrome (^51Cr) was assayed as described in previous studies [18].
Spontaneous release was determined in the plates to which 100 μl of medium was added without effector cells. The total radioactivity released was determined after treating the target with Triton x-100. HLA was blocked by using an anti-HLA-A2 antibody (A2.69, One Lambda, Inc., Chanoga Park, Calif., USA) or the anti-class I (pan A,B,C)-HLA antibody W6.32, which were incubated with the target cells for one hour before the cytotoxicity assay. The negative control was the UPC-10 monoclonal antibody.
The cytotoxicity tests carried out using the technique of ^51Cr release were performed using target cells coming from cell lines derived from breast carcinoma (MDA-MB-231) and colon carcinoma (HT-29 and SW-1463), before and after treatment with sub-lethal doses of 5-FU.

[5] = test system: breast and colon carcinoma tumour cells; test: Viability of target cells exposed to 5-FU (hemocytometric count); assay type: cell-based, human; conditions: sub-lethal doses for 48 hours
Text: The viability of the target cells exposed to 5-FU was examined by means of a hemocytometric count after staining and was never less than 90%, thus excluding the possibility that the immunosensitisation was due to the large number of dead or already degenerating cells in the cytotoxicity assay.

[6] = test system: MDA-MB-231, HT-29 and SW-1463 target cells; test: Cytofluorimetric and immunoblotting analyses of target cells treated with 5-FU; assay type: cell-based, human; conditions: data not shown
[7] = test system: murine TS in EL-4/HHD cells; test: Cytofluorimetric test of TS expression in EL-4/HHD cells; assay type: cell-based, mouse; conditions: sub-lethal dose, constitutive expression 35%
[8] = test system: EL-4/HHD autologous leukemic cells; test: Tumour growth in HHD mice inoculated with EL-4/HHD cells; assay type: in vivo, transgenic (HHD) mice; conditions: with weekly intraperitoneal 5-FU
Description: The results are given as the mean value ±SD of the maximum diameter.
In this study, six groups of five mice received different immunological treatments with or without chemotherapeutic treatment with 5-FU. The mice in groups A and B were administered a control peptide derived from the mumps virus (100 μg per mouse); the mice in groups C and D were administered a cocktail of the TS-1, TS-2 and TS-3 peptides (100 μg per mouse); and the mice in groups E and F were administered the TS/PP peptide (100 μg per mouse).
The mice received the first peptide administration subcutaneously at time 0, with recalls in the third and sixth week. Two weeks after the last administration, all animals were subcutaneously inoculated with 2×10^6 EL-4/HHD cells.
In order to evaluate the possible interaction between TS and the 5-FU treatment for vaccination purposes, seven days after the tumour cells inoculation, the mice in groups B, D and F underwent a chemotherapeutic treatment based on weekly intraperitoneal administration of 5-FU ([…]).

[9] = target: T1, HLA-A(*)02.01 molecule on cells (human); test: T2 test (flow cytometry of HLA expression on T2 cells after exposure to the peptide)
T1 construct: whole, on cells; Class I MHC molecule on cells; also called HLA-A2; HLA-A2.1

[10] = target: T1, HLA-A(*)02.01 molecule on cells; test: T2 test (flow cytometry, HLA-A*02:01 on T2 cells)

## CC[C@H](C)[C@H](NC(=O)[C@H](CCSC)NC(=O)[C@@H](N)Cc1ccc(O)cc1)C(=O)N[C@@H](C)C(=O)N[C@@H](Cc1c[nH]cn1)C(=O)N[C@H](C(=O)N[C@H](C(=O)NCC(=O)N[C@@H](CC(C)C)C(=O)N[C@@H](Cc1ccccc1)C(=O)N[C@@H](CC(C)C)C(=O)N[C@@H](CC(=O)O)C(=O)N[C@@H](CO)C(=O)N[C@@H](CC(C)C)C(=O)NCC(=O)N[C@@H](Cc1ccccc1)C(=O)N[C@@H](CO)C(=O)N[C@H](C(=O)N[C@H](C(=O)N[C@@H](CC(C)C)C(=O)NCC(=O)N[C@@H](CC(=O)O)C(=O)N[C@@H](C)C(=O)N[C@@H](Cc1c[nH]cn1)C(=O)N[C@H](C(=O)N[C@@H](Cc1ccc(O)cc1)C(=O)N[C@@H](CC(C)C)C(=O)O)[C@@H](C)CC)[C@@H](C)O)[C@@H](C)O)[C@@H](C)O)[C@@H](C)CC [TS/PP] (H-YMIAHITGLFLDSLGFSTTLGDAHIYL-OH; N-terminus and C-terminus assumed)
[1]
  Lysis after target cell pre-treatment with sub-lethal 5-FU doses: significantly increased
[2]
  Lysis after target cell pre-treatment with sub-lethal 5-FU doses: significantly increased
[3]
  Degeneration, autoimmunity or toxicity: do not indicate any autoimmunity or toxicity phenomena
[4]
  Lytic activity after target cell pre-treatment with sub-lethal 5-FU doses: significantly increased

## O=c1[nH]cc(F)c(=O)[nH]1 [5-FU, 5-fluorouracil]
[5]
  Viability of the target cells: ≥ 90%
[6]; MDA-MB-231, HT-29, SW-1463
  TS expression: significant increase
[6]
  Class I HLA expression: did not induce any change
[7]
  Expression of murine TS: 55-70%
[8]
  Neoplastic growth: did not change neoplastic growth in any way

## YMIAHITGLFLDSLGFSTTLGDAHIYL (also called 28-amer peptide) [TS/PP poly-epitope peptide (YMIAHITGLFLDSLGFSTTLGDAHIYL)]
[9]
  binding result: no binding

## FLDSLGFST (Synthetic 9-mer) [TS-3 peptide (FLDSLGFST)]
[10]
  binding result: binds

## YMIAHITGL (Synthetic 9-mer) [TS-2 peptide (YMIAHITGL)]
[10]
  binding result: binds

## TLGDAHIYL (Synthetic 9-mer) [TS-1 peptide (TLGDAHIYL)]
[10]
  binding result: binds
